Experiments:
retina = assay: Ex-vivo staining of porcine eyes, dye extraction and HPLC quantification in retina near the peeled area; conditions: ex-vivo swine eyes; for increase in the dyes content in the retina with respect to the staining formulation according to the invention: p=0.004
Experimental: (§1) To this end, a staining composition according to the invention was prepared having the following formulation (% by weight). • dye: Benzyl-BBG according to Example 4: 0.025% • Sodium phosphate monobasic dihydrate: 0.368% (SIGMA ALDRICH) • Sodium phosphate bibasic dihydrate: 0.711% (SIGMA ALDRICH) • Sodium chloride: 0.400% (SIGMA ALDRICH) • water for injectables: up to 100% (FRESENIUS KABI ITALIA S.R.L.).
(§2) This staining composition was compared with two staining composition available on the market, more specifically: • a staining composition including BBG and marketed under the trade name of ILM-BLUE® (D.O.R.C. Dutch Ophthalmic Research Center (International) B.V.), and with • a staining composition including methyl-BBG according to WO 2016/189475 marketed under the trade name of VIEW-ILM (AL.CHI.MI.A. S.r.l.).
(§3) Porcine eyes were obtained from a slaughterhouse and were prepared within 5 hours after death, the eyes were placed on a plastic holder, and a 360-degree limbal incision was performed for corneal removal, followed by total iris removal. Whole vitreous was gently extracted.
Next, 1 ml of BSS was placed in the eye and 40 µl of dye formulation was gently placed in the eye, by a Gilson pipet, for 30 seconds; then the BSS along the dye were removed and the eye rinsed with BSS. […]
Retina and ILM tissue samples obtained as described above were weighed and homogenized in 250-500 µl of methanol. […] The residues were reconstituted in 100 µl of mobile phase by vortexing for 120 s, filtered again on 0.45 µm filters and, finally, 20 µl aliquots were injected onto the chromatographic apparatus (each sample was analyzed in triplicate). […]
(§4) Quantification of the dye molecule was performed using 6-10 points external regression curves performed at 613 nm. […]
(§5) In the data analysis, statistical differences of ex-vivo data are determined using analysis of variance (ANOVA) followed by the Bonferroni-Dunn post hoc pairwise comparison procedure. […]

[1] = test system: proteins and protein chains; assay: SDS-PAGE protein staining, whole set of molecular weight standards (spots versus background); conditions: result in words; dye 0.05% by weight/volume
Experimental: The dye molecules according to the invention were tested in order to show their higher selectivity for proteins and protein chains with respect to BBG. For this purpose, SDS-PAGE electrophoresis tests were performed in order to compare the Benzyl-BBG according to the invention (Example 4) and the Ethyl-BBG according to Example 2 with a commercially available grade of BBG (Sigma-Aldrich 90% purity).
A set of molecular weight standards was created by mixing different amounts of known proteins (E.coli beta-galactosidase - 116.3 kDa, bovine serum albumin - 66.5 kDa, chicken ovalbumin - 42.7 kDa and equine cytochrome C - 12,384 Da) in such a way as to obtain bands of similar intensity. In order to do so, an inverse relationship between amount (as nanograms of protein) and molecular weight of any protein was initially achieved, and small adjustments were experimentally made. Polyacrylamide gel electrophoresis was done in 9% precast gels (Bio-Rad) at 20V for 60-90 minutes in denaturing conditions; standards were loaded in triplicate on separate lanes. […]

ILM = assay: Ex-vivo staining of porcine eyes, dye extraction and HPLC quantification in peeled ILM; conditions: ex-vivo swine eyes; for amounts of the dye molecule in the ILM (mean): 40 µl dye formulation in 1 ml BSS for 30 seconds, mean of 6, BBG 0.025% (ILM-BLUE), methyl-BBG 0.03% (VIEW-ILM), Benzyl-BBG 0.025%
Experimental: as §1, §2, §3
Next, 1 ml of BSS was placed in the eye and 40 µl of dye formulation was gently placed in the eye, by a Gilson pipet, for 30 seconds; then the BSS along the dye were removed and the eye rinsed with BSS.
The peeling of ILM was carried out by forceps and the tissue placed in an Eppendorf tube, the rest of retina near the area of ILM peeling was collected and placed in another Eppendorf tube.
The average amount of ILM tissue was of about 2 mg, whereas the average amount of retina tissue was of about 20 mg.
All tissues (ILM and retina) were stored at -20°C before HPLC analysis.
Retina and ILM tissue samples obtained as described above were weighed and homogenized in 250-500 µl of methanol. The homogenates were then transferred in an Eppendorf tube, ultrasonically extracted using a Branson Sonifier, centrifuged at 1,000 x g for 10 min and filtered on 0.45 µm syringe filters. The filtrates were transferred into labeled, clean test tubes and evaporated to dryness under a stream of nitrogen. The residues were reconstituted in 100 µl of mobile phase by vortexing for 120 s, filtered again on 0.45 µm filters and, finally, 20 µl aliquots were injected onto the chromatographic apparatus (each sample was analyzed in triplicate). […]
as §4, §5

[2] = cited from earlier work

For CCOc1ccc(N(C)c2ccc(C(=C3C=CC(=[N+](CC)Cc4cccc(S(=O)(=O)[O-])c4)C=C3C)c3ccc(N(CC)Cc4cccc(S(=O)(=O)O)c4)cc3C)cc2)cc1 [methyl-BBG], the “increase in the dyes content in the retina with respect to the staining formulation according to the invention” value (retina) was 10.9 fold.
For CCOc1ccc(Nc2ccc(C(=C3C=CC(=[N+](CC)Cc4cccc(S(=O)(=O)[O-])c4)C=C3C)c3ccc(N(CC)Cc4cccc(S(=O)(=O)O)c4)cc3C)cc2)cc1 [BBG, Coomassie Brilliant Blue G-250], the “increase in the dyes content in the retina with respect to the staining formulation according to the invention” value (retina) was 20.1 fold.
For CCOc1ccc(N(Cc2ccccc2)c2ccc(C(=C3C=CC(=[N+](CC)Cc4cccc(S(=O)(=O)[O-])c4)C=C3C)c3ccc(N(CC)Cc4cccc(S(=O)(=O)O)c4)cc3C)cc2)cc1 [Benzyl-BBG], the “difference between the spot intensity of Benzyl-BBG and Ethyl-BBG” value [1] was “No significant difference”, the “amounts of the dye molecule in the ILM (mean)” value (ILM) was 214.88 ng/mg tissue and the “amounts of the dye molecule in the ILM (mean)” value (ILM; listed as benzyl-BBG) was “about 215 ng/mg tissue”. The “increase of dye content in ILM with respect to the known formulation including BBG” value (ILM; p = 0,002) was 2.9 fold, the “increase of dye content in ILM with respect to the known formulation including methyl-BBG” value (ILM; p<0,001) was 6.0 fold and the “amounts of the dye molecule in the retina (mean)” value (retina; 40 µl dye formulation in 1 ml BSS for 30 seconds, mean of 6, BBG 0.025% (ILM-BLUE), methyl-BBG 0.03% (VIEW-ILM), Benzyl-BBG 0.025%) was 19.69 ng/mg tissue.
For c1ccc(CNCc2ccccc2)cc1 [dibenzylamine], the pKa [2] is given as 8.52.
